The values below come from ChEMBL document CHEMBL1909046, “DrugMatrix in vitro pharmacology data”.

The target in one data set is Cannabinoid receptor 1 (Homo sapiens, UniProt P21554). The data set is classed as cell membranes, Membrane. The settings on record: chem-1. Also: in other assays of this panel Not Active means under 50% inhibition at 10 µM.
The target of the next data set is Cytochrome P450 3A4 (Homo sapiens, UniProt P08684). The conditions noted are these: bti-tn-5b1-4. Also: in other assays of this panel Not Active means under 50% inhibition at 10 µM.
Chain of Cytochrome P450 3A4 (P08684 whole entry): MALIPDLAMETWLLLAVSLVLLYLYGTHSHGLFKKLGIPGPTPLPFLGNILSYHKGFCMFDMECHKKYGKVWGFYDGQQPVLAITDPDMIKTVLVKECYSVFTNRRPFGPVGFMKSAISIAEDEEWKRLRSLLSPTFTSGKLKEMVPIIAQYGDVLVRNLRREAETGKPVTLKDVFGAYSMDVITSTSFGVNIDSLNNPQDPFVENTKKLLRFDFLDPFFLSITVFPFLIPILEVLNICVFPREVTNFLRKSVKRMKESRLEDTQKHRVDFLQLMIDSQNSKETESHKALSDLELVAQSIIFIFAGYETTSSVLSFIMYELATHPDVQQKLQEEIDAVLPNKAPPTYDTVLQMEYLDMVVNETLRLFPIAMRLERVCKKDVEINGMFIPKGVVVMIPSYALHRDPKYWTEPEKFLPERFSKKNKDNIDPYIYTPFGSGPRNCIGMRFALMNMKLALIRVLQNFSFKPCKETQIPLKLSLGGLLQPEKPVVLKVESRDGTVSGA
Data set [1] can be described thus: DRUGMATRIX: Calcium Channel Type L, Dihydropyridine radioligand binding (ligand: [3H] Nitrendipine). The settings on record: Not Active = under 50% inhibition at 10 µM. It is filed as cell membranes, Rattus norvegicus, Wistar, Cerebral cortex, Membrane.
Data set [2] concerns the target Matrix metalloproteinase-9 (Homo sapiens, UniProt P14780). It is filed as cell-based.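 Also: inhibition of isolated MMP-9 enzyme activity toward a synthetic peptide substrate, from the DrugMatrix protease screening panel; in other assays of this panel Not Active means under 50% inhibition at 10 µM.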
The target of a further data set is D(3) dopamine receptor (Homo sapiens, UniProt P35462). The data set can be described thus: DRUGMATRIX: Dopamine D3 radioligand binding (ligand: [3H] Spiperone). It is filed as cell membranes, CHO, Membrane. The conditions noted are these: cho.
Chain of D(3) dopamine receptor (P35462 whole entry): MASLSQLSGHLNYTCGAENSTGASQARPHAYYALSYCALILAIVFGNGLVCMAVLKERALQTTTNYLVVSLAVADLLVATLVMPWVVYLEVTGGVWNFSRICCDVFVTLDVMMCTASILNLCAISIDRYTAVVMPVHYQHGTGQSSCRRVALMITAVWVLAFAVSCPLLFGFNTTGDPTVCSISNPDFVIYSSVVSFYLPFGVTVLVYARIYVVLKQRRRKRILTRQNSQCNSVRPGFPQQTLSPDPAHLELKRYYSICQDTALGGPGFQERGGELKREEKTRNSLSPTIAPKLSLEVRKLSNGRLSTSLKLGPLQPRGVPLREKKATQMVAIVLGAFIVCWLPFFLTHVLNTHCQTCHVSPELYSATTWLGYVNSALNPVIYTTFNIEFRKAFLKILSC
Data set [3] in a line: DRUGMATRIX: Potassium Channel [KATP] radioligand binding (ligand: [3H] Glyburide). It is filed as cell membranes, Membrane. The conditions noted are these: hit-t15; Not Active = under 50% inhibition at 10 µM.
The next data set concerns the target Acetylcholinesterase (Homo sapiens, UniProt P22303). The data set can be described thus: DRUGMATRIX: Acetylcholinesterase enzyme inhibition (substrate: acetylthiocholine). The settings on record: hek293; Not Active = under 50% inhibition at 10 µM. The data set is classed as cell-based, HEK293.
The nature of data set [4]: DRUGMATRIX: beta-Lactamase enzyme inhibition (substrate: Nitrocefin). The arrangement: species or system Bacillus cereus. The conditions noted are these: Not Active = under 50% inhibition at 10 µM.
Data set [5] has as its target T1, Neuropeptide Y receptor type 2 (Homo sapiens, UniProt P49146). Also: in other assays of this panel Not Active means under 50% inhibition at 10 µM.
T1 sequence (P49146 whole entry): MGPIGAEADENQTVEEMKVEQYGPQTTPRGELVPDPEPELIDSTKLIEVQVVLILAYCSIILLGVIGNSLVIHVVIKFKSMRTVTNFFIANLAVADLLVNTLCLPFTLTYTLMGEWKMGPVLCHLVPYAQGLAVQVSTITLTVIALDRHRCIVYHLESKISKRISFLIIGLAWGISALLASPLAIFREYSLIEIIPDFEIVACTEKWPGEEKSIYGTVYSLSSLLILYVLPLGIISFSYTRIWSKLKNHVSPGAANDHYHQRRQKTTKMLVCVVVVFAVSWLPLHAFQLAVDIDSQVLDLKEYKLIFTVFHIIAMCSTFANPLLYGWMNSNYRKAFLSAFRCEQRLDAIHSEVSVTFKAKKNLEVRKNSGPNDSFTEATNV
The data set is classed as cell membranes, Membrane. The conditions noted are these: kan-ts.

The target of a further data set is Melanocortin receptor 4 (Homo sapiens, UniProt P32245). It is filed as cell membranes, Membrane. The settings on record: hek293. Also: in other assays of this panel Not Active means under 50% inhibition at 10 µM.
Chain of Melanocortin receptor 4 (P32245 whole entry): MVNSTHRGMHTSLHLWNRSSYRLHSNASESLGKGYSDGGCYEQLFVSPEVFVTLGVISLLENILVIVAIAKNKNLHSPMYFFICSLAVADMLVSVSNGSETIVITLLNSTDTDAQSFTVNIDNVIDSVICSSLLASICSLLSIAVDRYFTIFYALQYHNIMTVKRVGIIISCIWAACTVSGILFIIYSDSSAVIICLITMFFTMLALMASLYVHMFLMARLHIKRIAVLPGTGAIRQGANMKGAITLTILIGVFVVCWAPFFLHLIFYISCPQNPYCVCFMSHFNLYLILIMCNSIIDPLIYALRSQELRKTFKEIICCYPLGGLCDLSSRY
The target of the next data set is T2, Adenosine receptor A3 (Homo sapiens, UniProt P0DMS8).
T2 sequence (P0DMS8 whole entry): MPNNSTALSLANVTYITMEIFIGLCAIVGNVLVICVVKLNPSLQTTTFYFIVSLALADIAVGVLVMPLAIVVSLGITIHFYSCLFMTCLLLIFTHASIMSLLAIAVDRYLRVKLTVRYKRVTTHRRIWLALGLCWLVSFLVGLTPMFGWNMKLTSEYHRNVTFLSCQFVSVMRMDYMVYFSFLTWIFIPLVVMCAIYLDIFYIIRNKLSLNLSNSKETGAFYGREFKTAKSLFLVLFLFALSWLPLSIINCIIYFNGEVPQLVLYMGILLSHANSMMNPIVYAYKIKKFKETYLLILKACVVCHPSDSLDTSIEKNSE
The data set is classed as cell membranes, CHO-K1, Membrane.

Another data set has as its target Substance-P receptor (Homo sapiens, UniProt P25103). It is filed as cell membranes, CHO, Membrane. The conditions noted are these: cho. Also: in other assays of this panel Not Active means under 50% inhibition at 10 µM.
A short description of data set [6]: DRUGMATRIX: Phosphodiesterase PDE4 enzyme inhibition (substrate: [3H]cAMP + cAMP). The conditions noted are these: u-937, Not Active = under 50% inhibition at 10 µM.
The next data set addresses Insulin receptor (Rattus norvegicus, UniProt P15127). It is filed as cell membranes, Wistar, Liver, Membrane.
The nature of data set [7]: DRUGMATRIX: ATPase, Na+/K+ enzyme inhibition (substrate: ATP). It is filed as tissue-based, Sus scrofa, Heart. The settings on record: Not Active = under 50% inhibition at 10 µM.

Chain of Acetylcholinesterase (P22303 whole entry): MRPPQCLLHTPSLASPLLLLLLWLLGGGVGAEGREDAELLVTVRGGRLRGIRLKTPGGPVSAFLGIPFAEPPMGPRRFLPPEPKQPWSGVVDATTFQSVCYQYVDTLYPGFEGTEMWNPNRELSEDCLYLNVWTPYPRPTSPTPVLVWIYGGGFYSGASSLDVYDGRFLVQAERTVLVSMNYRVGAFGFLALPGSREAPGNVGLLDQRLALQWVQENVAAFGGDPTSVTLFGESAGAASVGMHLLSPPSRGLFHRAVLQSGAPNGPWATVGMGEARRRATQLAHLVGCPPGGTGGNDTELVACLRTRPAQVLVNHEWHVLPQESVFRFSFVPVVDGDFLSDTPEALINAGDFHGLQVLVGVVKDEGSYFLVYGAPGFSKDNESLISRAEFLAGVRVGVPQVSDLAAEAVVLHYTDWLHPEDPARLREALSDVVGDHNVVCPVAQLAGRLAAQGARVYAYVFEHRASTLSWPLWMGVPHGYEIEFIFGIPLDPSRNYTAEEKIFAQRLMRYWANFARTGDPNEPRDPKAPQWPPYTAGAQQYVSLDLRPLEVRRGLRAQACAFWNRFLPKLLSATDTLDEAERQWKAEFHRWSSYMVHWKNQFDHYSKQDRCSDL
Chain of Cannabinoid receptor 1 (P21554 whole entry): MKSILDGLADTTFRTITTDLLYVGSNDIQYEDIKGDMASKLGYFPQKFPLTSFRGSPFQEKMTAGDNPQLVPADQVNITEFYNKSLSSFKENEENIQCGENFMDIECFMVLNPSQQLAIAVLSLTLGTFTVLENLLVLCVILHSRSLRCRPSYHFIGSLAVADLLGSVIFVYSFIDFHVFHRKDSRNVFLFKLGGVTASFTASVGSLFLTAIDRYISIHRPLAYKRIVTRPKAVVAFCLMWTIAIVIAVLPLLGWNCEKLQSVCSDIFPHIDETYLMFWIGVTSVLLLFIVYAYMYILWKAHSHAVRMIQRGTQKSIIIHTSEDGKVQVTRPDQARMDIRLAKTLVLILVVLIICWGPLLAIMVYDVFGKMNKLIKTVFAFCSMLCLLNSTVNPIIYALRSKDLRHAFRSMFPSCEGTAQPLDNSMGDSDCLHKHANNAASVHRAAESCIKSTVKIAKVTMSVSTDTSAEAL
Chain of Insulin receptor (P15127 27-759 limits assumed): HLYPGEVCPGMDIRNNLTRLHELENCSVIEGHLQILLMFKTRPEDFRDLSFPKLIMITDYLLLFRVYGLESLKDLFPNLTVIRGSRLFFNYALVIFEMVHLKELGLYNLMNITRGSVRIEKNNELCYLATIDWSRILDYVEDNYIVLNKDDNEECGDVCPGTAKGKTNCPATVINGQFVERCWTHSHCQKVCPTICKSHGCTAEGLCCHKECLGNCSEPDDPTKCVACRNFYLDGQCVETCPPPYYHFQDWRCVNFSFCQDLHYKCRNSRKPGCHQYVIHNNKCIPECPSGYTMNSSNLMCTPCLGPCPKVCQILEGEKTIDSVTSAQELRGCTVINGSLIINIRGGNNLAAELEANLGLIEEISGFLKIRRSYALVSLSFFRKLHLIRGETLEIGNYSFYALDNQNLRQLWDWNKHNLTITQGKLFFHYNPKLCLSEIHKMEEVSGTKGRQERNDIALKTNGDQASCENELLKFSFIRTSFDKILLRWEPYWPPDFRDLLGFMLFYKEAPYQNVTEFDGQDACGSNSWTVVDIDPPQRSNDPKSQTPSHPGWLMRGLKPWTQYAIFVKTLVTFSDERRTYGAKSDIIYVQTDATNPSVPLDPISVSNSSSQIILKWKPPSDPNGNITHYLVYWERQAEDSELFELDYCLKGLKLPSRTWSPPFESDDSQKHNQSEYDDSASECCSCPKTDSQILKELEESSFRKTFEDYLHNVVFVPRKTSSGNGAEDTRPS
Chain of Insulin receptor (P15127 764-1383 limits assumed): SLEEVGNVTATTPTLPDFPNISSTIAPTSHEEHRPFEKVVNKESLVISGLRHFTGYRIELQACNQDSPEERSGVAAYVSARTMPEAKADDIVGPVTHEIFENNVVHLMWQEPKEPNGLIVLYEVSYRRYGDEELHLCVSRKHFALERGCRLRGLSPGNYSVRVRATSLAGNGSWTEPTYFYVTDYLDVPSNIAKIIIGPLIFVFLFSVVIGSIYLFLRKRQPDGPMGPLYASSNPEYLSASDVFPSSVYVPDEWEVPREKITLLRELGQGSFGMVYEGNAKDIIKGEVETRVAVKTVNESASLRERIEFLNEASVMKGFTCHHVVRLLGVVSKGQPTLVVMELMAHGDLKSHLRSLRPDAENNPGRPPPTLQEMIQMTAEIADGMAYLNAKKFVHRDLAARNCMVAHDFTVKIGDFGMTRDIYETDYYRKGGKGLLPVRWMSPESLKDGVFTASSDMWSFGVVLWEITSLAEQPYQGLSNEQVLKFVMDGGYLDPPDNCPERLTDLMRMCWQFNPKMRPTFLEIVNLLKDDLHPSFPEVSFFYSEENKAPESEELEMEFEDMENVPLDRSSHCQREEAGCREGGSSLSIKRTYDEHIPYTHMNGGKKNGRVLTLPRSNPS
Chain of Substance-P receptor (P25103 whole entry): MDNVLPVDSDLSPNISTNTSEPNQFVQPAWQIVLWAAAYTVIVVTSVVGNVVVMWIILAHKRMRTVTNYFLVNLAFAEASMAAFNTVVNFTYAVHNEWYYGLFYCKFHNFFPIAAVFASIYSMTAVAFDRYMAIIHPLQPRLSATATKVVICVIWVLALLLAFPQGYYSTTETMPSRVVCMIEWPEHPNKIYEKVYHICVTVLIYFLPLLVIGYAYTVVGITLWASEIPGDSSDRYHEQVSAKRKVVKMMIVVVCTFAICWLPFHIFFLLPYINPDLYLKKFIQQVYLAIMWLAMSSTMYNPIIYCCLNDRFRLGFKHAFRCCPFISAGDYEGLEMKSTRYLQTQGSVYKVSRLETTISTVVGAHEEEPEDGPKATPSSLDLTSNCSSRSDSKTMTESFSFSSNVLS
Chain of Matrix metalloproteinase-9 (P14780 whole entry): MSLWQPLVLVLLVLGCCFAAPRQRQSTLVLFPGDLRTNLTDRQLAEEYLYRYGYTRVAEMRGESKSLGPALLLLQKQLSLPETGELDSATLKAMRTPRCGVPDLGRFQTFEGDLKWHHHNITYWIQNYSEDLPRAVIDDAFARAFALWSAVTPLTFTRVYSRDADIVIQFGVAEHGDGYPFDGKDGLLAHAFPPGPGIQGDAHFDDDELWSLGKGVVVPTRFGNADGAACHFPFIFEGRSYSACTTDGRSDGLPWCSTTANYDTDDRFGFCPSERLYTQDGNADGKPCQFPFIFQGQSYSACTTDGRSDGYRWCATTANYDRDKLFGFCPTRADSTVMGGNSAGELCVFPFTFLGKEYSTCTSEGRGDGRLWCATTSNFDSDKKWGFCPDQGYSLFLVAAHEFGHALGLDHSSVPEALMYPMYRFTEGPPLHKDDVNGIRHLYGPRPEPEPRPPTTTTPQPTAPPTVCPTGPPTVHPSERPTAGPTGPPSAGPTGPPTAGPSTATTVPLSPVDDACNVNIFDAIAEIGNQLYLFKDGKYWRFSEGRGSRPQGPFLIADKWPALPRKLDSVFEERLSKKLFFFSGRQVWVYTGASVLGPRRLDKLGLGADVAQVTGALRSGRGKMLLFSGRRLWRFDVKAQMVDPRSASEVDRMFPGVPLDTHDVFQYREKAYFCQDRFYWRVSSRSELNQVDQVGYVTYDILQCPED

Turning to `CC=CC(=O)N(CC)c1ccccc1C`, the concentration for half-maximal inhibition (IC50) entry (at Cannabinoid receptor 1; on Cytochrome P450 3A4; in data set [1]; in data set [2]; on D(3) dopamine receptor; in [3]) was “Not Active” each time. Also, the IC50 entry (against Acetylcholinesterase; in [4]; in data set [5]; against Melanocortin receptor 4; at Adenosine receptor A3 (cho-k1); against Substance-P receptor) was “Not Active” in each case. In addition, the IC50 entry (in data set [6]; against Insulin receptor; in [7]) was “Not Active” throughout. Moreover, the inhibitory constant (Ki) entry (at Cytochrome P450 3A4; in data set [1]; in data set [3]; in data set [4]; in data set [6]; in data set [7]) was “Not Active” throughout.

Regarding `C=C1C(=O)O[C@@H]2C3O[C@]3(C)CC/C=C(\C)CC[C@@H]12` (some centres not stated), the half-maximal inhibitory concentration (IC50) result (at Cannabinoid receptor 1; against Cytochrome P450 3A4; in [1]; in data set [2]; on D(3) dopamine receptor; in data set [3]) was “Not Active” in each case. Also, the IC50 result (against Acetylcholinesterase; in data set [4]; in data set [5]; against Melanocortin receptor 4; at Adenosine receptor A3 (cho-k1); at Substance-P receptor) was “Not Active” throughout. Also, the IC50 result (in data set [6]; against Insulin receptor; in [7]) was “Not Active” each time. The Ki entry (at Cytochrome P450 3A4; in data set [1]; in [3]; in data set [4]; in data set [6]; in [7]) was “Not Active” each time.

`CC(/C=C1\SC(=S)N(CC(=O)O)C1=O)=C\c1ccccc1`: the half-inhibitory concentration (IC50) entry (against Cannabinoid receptor 1; at Cytochrome P450 3A4; in data set [1]; in data set [2]; at D(3) dopamine receptor; in data set [3]) was “Not Active” throughout. Also, the IC50 entry (against Acetylcholinesterase; in [4]; in data set [5]; against Melanocortin receptor 4; against Adenosine receptor A3 (cho-k1); against Substance-P receptor) was “Not Active” throughout. In addition, the IC50 result (in [6]; on Insulin receptor; in data set [7]) was “Not Active” throughout. The Ki result (at Cytochrome P450 3A4; in data set [1]; in data set [3]; in data set [4]; in [6]; in [7]) was “Not Active” throughout.

For the molecule `CCCCCCCCCc1ccc(O)cc1` [4-NONYLPHENOL], the half-maximal inhibitory concentration (IC50) entry (at Cannabinoid receptor 1; at Cytochrome P450 3A4; in [1]; in data set [2]; on D(3) dopamine receptor; in data set [3]) was “Not Active” throughout. Besides, the IC50 entry at Acetylcholinesterase was “Not Active”; in data set [4] it was “Not Active”; in [5], “Not Active”; on Melanocortin receptor 4 it was “Not Active”; on Adenosine receptor A3 (read-out: IC50) it was 1920 nM; at Substance-P receptor it was “Not Active”. Besides, the IC50 result (in [6]; on Insulin receptor; in [7]) was “Not Active” throughout. Also, the Ki result was “Not Active” at Cytochrome P450 3A4; “Not Active” in data set [1]; “Not Active” in [3]; “Not Active” in data set [4]; 1080 nM at Adenosine receptor A3 (read-out: Ki); “Not Active” in data set [6]. For the same molecule, the Ki result in data set [7] was “Not Active”.

For the molecule `COc1ccc2c(c1)c(CC(=O)OCC(=O)O)c(C)n2C(=O)c1ccc(Cl)cc1` [ACEMETACIN], the half-inhibitory concentration (IC50) result (on Cannabinoid receptor 1; against Cytochrome P450 3A4; in data set [1]; in [2]; on D(3) dopamine receptor; in data set [3]) was “Not Active” each time. For the same molecule, the IC50 result (against Acetylcholinesterase; in data set [4]; in data set [5]; on Melanocortin receptor 4; on Adenosine receptor A3 (cho-k1); on Substance-P receptor) was “Not Active” each time. For the same molecule, the IC50 result (in [6]; against Insulin receptor; in data set [7]) was “Not Active” in each case. The Ki entry (at Cytochrome P450 3A4; in data set [1]; in [3]; in [4]; in data set [6]; in data set [7]) was “Not Active” throughout.

Consider `Cc1[nH]cnc1CN1CCc2c(c3ccccc3n2C)C1=O` [ALOSETRON], for which the 50% inhibitory concentration (IC50) result (against Cannabinoid receptor 1; at Cytochrome P450 3A4; in data set [1]; in data set [2]; on D(3) dopamine receptor; in data set [3]) was “Not Active” each time. The concentration for half-maximal inhibition (IC50) result (against Acetylcholinesterase; in data set [4]; in [5]; at Melanocortin receptor 4; against Adenosine receptor A3 (cho-k1); against Substance-P receptor) was “Not Active” throughout. Also, the IC50 result (in data set [6]; against Insulin receptor; in data set [7]) was “Not Active” in each case. For the same molecule, the inhibitory constant (Ki) result (on Cytochrome P450 3A4; in data set [1]; in [3]; in [4]; in data set [6]; in data set [7]) was “Not Active” throughout.

With `O=c1cc(-c2ccccc2)oc2c1ccc1ccccc12` [ALPHA-NAPHTHOFLAVONE], the concentration for half-maximal inhibition (IC50) result (against Cannabinoid receptor 1; against Cytochrome P450 3A4; in [1]; in data set [2]; at D(3) dopamine receptor; in [3]) was “Not Active” in each case. In addition, the IC50 entry (against Acetylcholinesterase; in [4]; in [5]; against Melanocortin receptor 4; against Adenosine receptor A3 (cho-k1); against Substance-P receptor) was “Not Active” in each case. Further, the concentration for half-maximal inhibition (IC50) is 2920 nM in [6] (read-out: IC50), “Not Active” against Insulin receptor and “Not Active” in [7]. Also, the inhibitory constant (Ki) entry (on Cytochrome P450 3A4; in data set [1]; in [3]; in [4]; in data set [7]) was “Not Active” throughout.

As usually defined, the IC50 is the concentration at which inhibition is half-maximal. One may read the Ki as the equilibrium dissociation constant of an inhibitor or competing ligand from its target.
